# Results as given in PMC12406664, “New derivatives of 6-nitrocoumarin-3-thiosemicarbazone exhibit improved antiparasitic activity in the placenta against Trypanosoma cruzi and Toxoplasma gondii” (Antimicrobial Agents and Chemotherapy, 2025).
# How the values were obtained:
# T. cruzi = system: T. cruzi; parameters: method as in ref 28 (b), 32, 33 (c, d); conditions: Fig. 2 literature compounds; ref 28 (b), 32, 33 (c, d); cited from earlier work
# T. gondii = system: T. gondii; parameters: method as in ref 26 (a), 34 (e), 38 (f); conditions: Fig. 2 literature compounds; ref 26 (a), 34 (e), 38 (f); cited from earlier work
# [1] = system: T. cruzi trypomastigotes, Dm28 strain; experiment: Resazurin viability assay on free T. cruzi trypomastigotes; conditions: Trypanosoma cruzi, 24 h, read-out: Viability T. cruzi (%)
# Description: The reduction of resazurin sodium salt was used to determine the trypanocidal and toxoplasmicidal activity of the 6-nitrocoumarin-thiosemicarbazone hybrids 1–8. For this, treatment with the compounds was carried out for 24 h at a concentration of 100 µM.
# NFX was used as a positive control for T. cruzi, and PMN was used for T. gondii. Untreated parasites served as a negative control. […] Subsequently, parasites with their respective conditions were transferred to a 96-well white fluorescence reading plate, adding resazurin at a final concentration of […] with 0.8 mM phenazine. The plate was incubated for 3 hours at 37°C in a humidified atmosphere with 5% CO2, and fluorescence measurements were taken using a microplate reader (Thermo Scientific Varioskan Flash) at excitation wavelengths of 560 nm and emission wavelengths of 590 nm.
# [2] = system: T. gondii tachyzoites, RH strain; experiment: Resazurin viability assay on free T. gondii tachyzoites; format: cell-based, Toxoplasma gondii; conditions: Toxoplasma gondii; tachyzoites RH; 100 µM; 24 h
# Description: Untreated parasites served as a negative control.
# [3] = Lipophilicity by reversed-phase TLC (RM); conditions: reverse phase-C18, DMSO/phosphate buffer pH 7.4 (70:30 vol/vol), RM = log[(1/Rf) – 1]
# [4] = Cyclic voltammetry, reduction potentials in DMSO (HDME, vs. Ag/AgCl); conditions: 2.00 V/s; for E(pIIa): anodic peak IIa; for E(pIIc): cathodic peak IIc, nitro anion radical couple; for E(pIca): cathodic peak Ica; for E(pIca) / E(pIcb): nitro reduction; for E(pIcb): cathodic peak Icb; for E(pIIIc): cathodic peak IIIc, hydroxylamine formation; for E(pIVc): cathodic peak IVc, imine reduction
Lipophilicity (RM) [3],E(pIIa) [4],E(pIIc) [4],SMILES,viability at 100 µM [1],viability at 100 µM [2],other results
,,,O=c1oc2c(O)c(O)ccc2cc1-c1ccccc1O [d],,,IC50 (T. cruzi): 39.7 µM
,,,C/C(=N\N=C1\NC(=O)CS1)c1cc2ccccc2oc1=O [e],,,IC50 (T. gondii): 8 µM
0.33,−1.00 V,−1.08 V,"CCNC(=S)N/N=C(\C)c1c(O)c2cc([N+](=O)[O-])ccc2oc1=O [Compound 3, (E)-N-ethyl-2-(1-(4-hydroxy-6-nitro-2-oxo-2H-chromen-3-yl)ethylidene)hydrazine-1-carbothioamide]",70.7 ± 9.4%,49.6 ± 13.5%,E(pIca) [4]: −0.88 V; E(pIcb) [4]: −0.99 V
0.13,−1.01 V,−1.08 V,"CNC(=S)N/N=C(\C)c1c(O)c2cc([N+](=O)[O-])ccc2oc1=O [Compound 2, (E)−2-(1-(4-hydroxy-6-nitro-2-oxo-2H-chromen-3-yl)ethylidene)-N-methylhydrazine-1-carbothioamide]",81.5 ± 14.1%,29.1 ± 13.5%,E(pIca) [4]: −0.89 V; E(pIcb) [4]: −0.99 V
,,,O=C(O)c1cn(C2CC2)c2cc(N3CCN(Cc4ccc([N+](=O)[O-])o4)CC3)c(F)cc2c1=O [f],,,IC50 (T. gondii): 7.9 µM
−0.41,−0.87 V,−0.93 V,"CNC(=S)N/N=C(\C)c1cc2cc([N+](=O)[O-])ccc2oc1=O [Compound 6, (E)-N-methyl-2-(1-(6-nitro-2-oxo-2H-chromen-3-yl)ethylidene)hydrazine-1-carbothioamide]",49.8 ± 5.3%,55.5 ± 9.6%,E(pIIIc) [4]: −1.40 V; E(pIVc) [4]: −1.68 V
−0.58,−0.90 V,~−0.94 V,"C/C(=N\NC(N)=S)c1cc2cc([N+](=O)[O-])ccc2oc1=O [Compound 5, (E)−2-(1-(6-nitro-2-oxo-2H-chromen-3-yl)ethylidene)hydrazine-1-carbothioamide]",44.6 ± 7.1%,65.7 ± 14.8%,E(pIIIc) [4]: ~−1.38 V; E(pIVc) [4]: ~−1.66 V
0.85,−1.01 V,−1.09 V,"C/C(=N\NC(=S)Nc1ccccc1)c1c(O)c2cc([N+](=O)[O-])ccc2oc1=O [Compound 4, (E)−2-(1-(4-hydroxy-6-nitro-2-oxo-2H-chromen-3-yl)ethylidene)-N-phenylhydrazine-1-carbothioamide]",50.3 ± 5%,84.4 ± 13.7%,E(pIca) [4]: −0.62 V; E(pIcb) [4]: −1.05 V
,,,O=C(Cc1c([N+](=O)[O-])c(=O)oc2ccccc12)c1cccnc1 [c],,,IC50 (T. cruzi): 137 µM
,,,COc1ccc(/C(COc2ccc(F)cc2)=N\NC(N)=S)cc1 [a],,,IC50 (T. gondii): 1.09 µM
,,,NC(=S)N/N=C/c1ccc([N+](=O)[O-])o1 [b],,,IC50 (T. cruzi): 9.8 µM
